Drawing on the NIST ThermoML archive (doi:10.1021/je049793l), this text covers mass density, speed of sound and viscosity for 13 compounds.

The nature of data set [1]: xn = mol fraction of the nth substance listed. The settings on record: 298.15 K, 101.3 kPa, Liquid.
The conditions of data set [2]: 298.15 K; 101.3 kPa; Liquid.

Numbers after ± are expanded uncertainties.

What is called mass density is the mass of a sample divided by its volume. Usually speed of sound stands for the propagation velocity of pressure waves in the medium. What is called viscosity is the resistance of a fluid to flow.

Turning to `CCC(C)=O` [butanone] + CC(C)c1ccccc1, in data set [1] (x2 = 0), the mass density is recorded as 799.6 ± 0.9 kg/m3, the speed of sound is 1195 ± 3 m/s and the viscosity is recorded as 0.376 ± 0.009 mPa·s.

With `CC(C)c1ccccc1` [isopropylbenzene] + CCC(C)=O, the mass density is on record as 805 ± 0.9 kg/m3 in data set [1] (x1 = 0.0377); 812.2 ± 0.9 kg/m3 in data set [1] (x1 = 0.0964); 821.7 ± 0.9 kg/m3 in data set [1] (x1 = 0.2025); 829.5 ± 0.9 kg/m3 in data set [1] (x1 = 0.3251); 835.4 ± 0.9 kg/m3 in data set [1] (x1 = 0.4599); 842 ± 0.9 kg/m3 in data set [1] (x1 = 0.615). Moreover, the results for the mass density in data set [1] (x1 = 0.7937), in data set [1] (x1 = 0.9123) and in data set [1] (x1 = 1) were 849.2 ± 1 kg/m3, 853.9 ± 1 kg/m3 and 857.1 ± 1 kg/m3, respectively. Further, the speed of sound is recorded as 1204 ± 3 m/s in data set [1] (x1 = 0.0377); 1217 ± 3 m/s in data set [1] (x1 = 0.0964); 1240 ± 3 m/s in data set [1] (x1 = 0.2025); 1262 ± 3 m/s in data set [1] (x1 = 0.3251); 1279 ± 3 m/s in data set [1] (x1 = 0.4599); 1290 ± 3 m/s in data set [1] (x1 = 0.615). For the same compound, the speed of sound in data set [1] (x1 = 0.7937) is listed as 1298 ± 3 m/s; in data set [1] (x1 = 0.9123), 1308 ± 3 m/s; in data set [1] (x1 = 1), 1338 ± 3 m/s. Further, the viscosity in data set [1] (x1 = 0.0377) is on record as 0.388 ± 0.009 mPa·s; in data set [1] (x1 = 0.0964) it was 0.408 ± 0.009 mPa·s; in data set [1] (x1 = 0.2025), 0.445 ± 0.009 mPa·s; in data set [1] (x1 = 0.3251), 0.486 ± 0.01 mPa·s; in data set [1] (x1 = 0.4599), 0.535 ± 0.01 mPa·s; in data set [1] (x1 = 0.615) it was 0.592 ± 0.011 mPa·s. The viscosity in data set [1] (x1 = 0.7937) was determined as 0.66 ± 0.012 mPa·s; in data set [1] (x1 = 0.9123) it was 0.705 ± 0.012 mPa·s; in data set [1] (x1 = 1) it was 0.739 ± 0.013 mPa·s.

In the case of `CC(C)c1ccccc1` [isopropylbenzene], in data set [2], the mass density came to 857.1 ± 1 kg/m3, the speed of sound was 1338 ± 3 m/s and the viscosity stood at 0.739 ± 0.013 mPa·s.

Regarding `Cc1ccc(C)cc1` [1,4-dimethylbenzene], in data set [2], the mass density stood at 856.1 ± 1 kg/m3, the speed of sound was 1316 ± 3 m/s and the viscosity is listed as 0.609 ± 0.011 mPa·s.

For `CCC(C)=O` [butanone], in data set [2], the mass density is 799.6 ± 0.9 kg/m3, the speed of sound is 1195 ± 3 m/s and the viscosity stood at 0.376 ± 0.009 mPa·s.

As to `CCC(C)=O` [butanone] + Cc1ccc(C)cc1, the mass density in data set [1] (x2 = 0) was 799.6 ± 0.9 kg/m3; in data set [1] (x2 = 0.0429) it was 806 ± 0.9 kg/m3; in data set [1] (x2 = 0.1074), 813.8 ± 0.9 kg/m3; in data set [1] (x2 = 0.2235) it was 823.5 ± 0.9 kg/m3; in data set [1] (x2 = 0.3501) it was 830.4 ± 0.9 kg/m3; in data set [1] (x2 = 0.4895), 836.6 ± 0.9 kg/m3. Besides, the mass density came to 842.9 ± 0.9 kg/m3 in data set [1] (x2 = 0.6419), 849.6 ± 1 kg/m3 in data set [1] (x2 = 0.8117) and 853.2 ± 1 kg/m3 in data set [1] (x2 = 0.9213). Moreover, the speed of sound is on record as 1195 ± 3 m/s in data set [1] (x2 = 0); 1218 ± 3 m/s in data set [1] (x2 = 0.0429); 1237 ± 3 m/s in data set [1] (x2 = 0.1074); 1257 ± 3 m/s in data set [1] (x2 = 0.2235); 1272 ± 3 m/s in data set [1] (x2 = 0.3501); 1289 ± 3 m/s in data set [1] (x2 = 0.4895). The speed of sound in data set [1] (x2 = 0.6419) was 1299 ± 3 m/s; in data set [1] (x2 = 0.8117), 1308 ± 3 m/s; in data set [1] (x2 = 0.9213), 1313 ± 3 m/s. Besides, the viscosity amounted to 0.376 ± 0.009 mPa·s in data set [1] (x2 = 0); 0.392 ± 0.009 mPa·s in data set [1] (x2 = 0.0429); 0.414 ± 0.009 mPa·s in data set [1] (x2 = 0.1074); 0.444 ± 0.009 mPa·s in data set [1] (x2 = 0.2235); 0.471 ± 0.01 mPa·s in data set [1] (x2 = 0.3501); 0.5 ± 0.01 mPa·s in data set [1] (x2 = 0.4895). For the same compound, the viscosity in data set [1] (x2 = 0.6419) turned out to be 0.533 ± 0.01 mPa·s; in data set [1] (x2 = 0.8117), 0.572 ± 0.011 mPa·s; in data set [1] (x2 = 0.9213), 0.596 ± 0.011 mPa·s.

On to `CCC(C)=O` [butanone] + Cc1cccc(C)c1, for which, in data set [1] (x2 = 0), the mass density came out at 799.6 ± 0.9 kg/m3, the speed of sound is on record as 1195 ± 4 m/s and the viscosity is 0.376 ± 0.009 mPa·s.

Take `Cc1ccccc1C` [1,2-dimethylbenzene] + CCC(C)=O: in data set [1] (x1 = 1), the mass density is 875.2 ± 1 kg/m3, the speed of sound turned out to be 1349 ± 3 m/s and the viscosity is recorded as 0.768 ± 0.013 mPa·s.

Regarding `CCC(C)=O` [butanone] + Cc1ccccc1C, the mass density in data set [1] (x2 = 0) is reported as 799.6 ± 0.9 kg/m3; in data set [1] (x2 = 0.0437), 805.6 ± 0.9 kg/m3; in data set [1] (x2 = 0.1095) it was 813.7 ± 0.9 kg/m3; in data set [1] (x2 = 0.2288), 825.7 ± 0.9 kg/m3; in data set [1] (x2 = 0.3564), 836.2 ± 0.9 kg/m3; in data set [1] (x2 = 0.4969), 846.1 ± 0.9 kg/m3. The mass density in data set [1] (x2 = 0.65) is 856 ± 1 kg/m3; in data set [1] (x2 = 0.8165), 865.9 ± 1 kg/m3; in data set [1] (x2 = 0.9244) it was 871.7 ± 1 kg/m3. The speed of sound in data set [1] (x2 = 0) is 1195 ± 3 m/s; in data set [1] (x2 = 0.0437), 1208 ± 3 m/s; in data set [1] (x2 = 0.1095), 1222 ± 3 m/s; in data set [1] (x2 = 0.2288), 1244 ± 3 m/s; in data set [1] (x2 = 0.3564), 1266 ± 3 m/s; in data set [1] (x2 = 0.4969), 1288 ± 3 m/s. Further, the results for the speed of sound in data set [1] (x2 = 0.65), in data set [1] (x2 = 0.8165) and in data set [1] (x2 = 0.9244) were 1310 ± 3 m/s, 1331 ± 3 m/s and 1339 ± 3 m/s, respectively. The viscosity in data set [1] (x2 = 0) turned out to be 0.376 ± 0.009 mPa·s; in data set [1] (x2 = 0.0437), 0.39 ± 0.009 mPa·s; in data set [1] (x2 = 0.1095) it was 0.412 ± 0.009 mPa·s; in data set [1] (x2 = 0.2288) it was 0.451 ± 0.01 mPa·s; in data set [1] (x2 = 0.3564), 0.493 ± 0.01 mPa·s; in data set [1] (x2 = 0.4969), 0.542 ± 0.011 mPa·s. The viscosity in data set [1] (x2 = 0.65) amounted to 0.601 ± 0.011 mPa·s; in data set [1] (x2 = 0.8165), 0.673 ± 0.012 mPa·s; in data set [1] (x2 = 0.9244), 0.727 ± 0.013 mPa·s.

On to `Cc1cccc(C)c1` [1,3-dimethylbenzene], for which, in data set [2], the mass density is recorded as 859.4 ± 1 kg/m3, the speed of sound was 1323 ± 4 m/s and the viscosity worked out at 0.587 ± 0.011 mPa·s.

`Cc1ccc(C)cc1` [1,4-dimethylbenzene] + CCC(C)=O: in data set [1] (x1 = 1), the mass density is 856.1 ± 1 kg/m3, the speed of sound is listed as 1316 ± 3 m/s and the viscosity is reported as 0.609 ± 0.011 mPa·s.

`Cc1cccc(C)c1` [1,3-dimethylbenzene] + CCC(C)=O: the mass density is 803.5 ± 0.9 kg/m3 in data set [1] (x1 = 0.0428); 809.2 ± 0.9 kg/m3 in data set [1] (x1 = 0.1084); 818.3 ± 0.9 kg/m3 in data set [1] (x1 = 0.2261); 827 ± 0.9 kg/m3 in data set [1] (x1 = 0.3524); 835.7 ± 0.9 kg/m3 in data set [1] (x1 = 0.4941); 844.1 ± 0.9 kg/m3 in data set [1] (x1 = 0.646). Further, the mass density in data set [1] (x1 = 0.8137) is listed as 852 ± 1 kg/m3; in data set [1] (x1 = 0.9235) it was 856.7 ± 1 kg/m3; in data set [1] (x1 = 1) it was 859.4 ± 1 kg/m3. The speed of sound in data set [1] (x1 = 0.0428) is on record as 1204 ± 4 m/s; in data set [1] (x1 = 0.1084), 1218 ± 4 m/s; in data set [1] (x1 = 0.2261), 1240 ± 4 m/s; in data set [1] (x1 = 0.3524) it was 1256 ± 4 m/s; in data set [1] (x1 = 0.4941), 1273 ± 4 m/s; in data set [1] (x1 = 0.646) it was 1293 ± 4 m/s. Besides, the speed of sound in data set [1] (x1 = 0.8137) turned out to be 1312 ± 4 m/s; in data set [1] (x1 = 0.9235), 1320 ± 4 m/s; in data set [1] (x1 = 1), 1323 ± 4 m/s. The viscosity amounted to 0.384 ± 0.009 mPa·s in data set [1] (x1 = 0.0428); 0.398 ± 0.009 mPa·s in data set [1] (x1 = 0.1084); 0.422 ± 0.009 mPa·s in data set [1] (x1 = 0.2261); 0.448 ± 0.01 mPa·s in data set [1] (x1 = 0.3524); 0.478 ± 0.01 mPa·s in data set [1] (x1 = 0.4941); 0.51 ± 0.01 mPa·s in data set [1] (x1 = 0.646). In addition, the figures for the viscosity in data set [1] (x1 = 0.8137), in data set [1] (x1 = 0.9235) and in data set [1] (x1 = 1) were 0.546 ± 0.011 mPa·s, 0.57 ± 0.011 mPa·s and 0.587 ± 0.011 mPa·s, respectively.

Regarding `Cc1ccccc1C` [1,2-dimethylbenzene], in data set [2], the mass density stood at 875.2 ± 1 kg/m3, the speed of sound is 1349 ± 3 m/s and the viscosity is on record as 0.768 ± 0.013 mPa·s.
